Where two headings read alike, the source gives them in different places.
Key:
HSV-1 TK [1] = target: T1, HSV-1 TK (Human herpesvirus 1, UniProt P0DTH5); assay: biochemical
Description: (§1) The competion experiments were carried out in the following way: The standard reaction mixture contained 2.5 mM MgCl2, 10 mM dithio threitol, 1 mg/ml bovine serum albumin, 2.5 mM ATP, 10 mM NaF, 2 μM methyl-^3H-thymidine, an appropriate amount of a nucleoside analog and the multisubstrate deoxyribonucleoside kinase in an amount resulting in a linear conversion of the substrate, in a total reaction mixture of 50 μl of 50 mM Tris-HCl, pH 8.0. The reaction mixture was incubated at 37° C. for 30 min, and the reaction was terminated by spotting on to DE-81 discs (Whatman). The discs were instantly immersed and washed in ethanol (70%). The filters were dried and assayed for radioactivity in a tuluene-based scintillant.

HSV-TK = settings: cited from earlier work
deoxyguanosine kinase = target: T2, deoxyguanosine kinase (Homo sapiens, UniProt Q16854); settings: cited from earlier work
T2 sequence (Q16854 40-277): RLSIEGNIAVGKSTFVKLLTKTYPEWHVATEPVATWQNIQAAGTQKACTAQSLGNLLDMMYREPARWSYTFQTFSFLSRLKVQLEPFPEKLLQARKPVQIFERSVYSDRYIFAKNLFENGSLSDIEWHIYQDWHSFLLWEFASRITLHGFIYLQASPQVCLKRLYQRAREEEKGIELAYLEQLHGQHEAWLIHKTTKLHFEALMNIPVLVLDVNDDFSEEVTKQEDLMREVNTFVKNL

recombinant Dm-dNK = target: T3, recombinant Dm-dNK (Drosophila melanogaster, UniProt Q9XZT6); assay: Phosphoryl transfer assay, substrate specificity of recombinant Dm-dNK; settings: naturally occurring nucleosides
T3 sequence (Q9XZT6 1-250): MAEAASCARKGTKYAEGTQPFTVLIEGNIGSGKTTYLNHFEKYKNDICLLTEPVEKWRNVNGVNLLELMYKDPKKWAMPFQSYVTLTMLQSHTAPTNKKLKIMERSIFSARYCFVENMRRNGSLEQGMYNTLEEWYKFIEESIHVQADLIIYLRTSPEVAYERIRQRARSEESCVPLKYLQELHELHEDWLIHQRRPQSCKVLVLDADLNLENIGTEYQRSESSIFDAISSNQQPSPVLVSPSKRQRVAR
Description: A phosphor transferase assay was used to determine the substrate specificity of the putative deoxyribonucleoside kinase. […] The samples were incubated 30 min at 37° C. 2 μl of the reaction mixtures were spotted on poly(ethyleneimine) cellulose F thin layer chromatography sheets (Merck Inc.) and the nucleotide separated in a buffer containing NH4OH:isobutyric acid:dH2O (1:66:33). The sheets were autoradiographed using phosphoimaging plates (BAS 1000, Fujix).

HSV-1 TK [2] = target: T1, HSV-1 TK
Description: as §1

T1 sequence (P0DTH5 whole entry): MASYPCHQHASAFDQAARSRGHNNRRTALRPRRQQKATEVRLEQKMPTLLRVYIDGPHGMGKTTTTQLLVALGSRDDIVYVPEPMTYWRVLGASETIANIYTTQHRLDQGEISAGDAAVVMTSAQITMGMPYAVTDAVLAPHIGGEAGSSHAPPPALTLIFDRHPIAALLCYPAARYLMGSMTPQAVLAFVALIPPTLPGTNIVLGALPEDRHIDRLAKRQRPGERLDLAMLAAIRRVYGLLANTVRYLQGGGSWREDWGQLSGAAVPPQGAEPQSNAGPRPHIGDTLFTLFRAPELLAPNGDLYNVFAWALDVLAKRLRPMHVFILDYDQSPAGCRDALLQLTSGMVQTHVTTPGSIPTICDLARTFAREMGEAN

Row | SMILES | IC50 (HSV-1 TK [1]) [µM] | phosphorylation by HSV-TK (in words) (HSV-TK) | phosphorylation by deoxyguanosine kinase (in words) (deoxyguanosine kinase) | phosphorylation by the enzyme (in words) (recombinant Dm-dNK) | IC50 (HSV-1 TK [2]) [µM]
1 | O=c1[nH]c(=O)n([C@@H]2O[C@H](CO)[C@@H](O)[C@@H]2F)cc1I [FIAU, 1-(2-deoxy-2-fluoro-β-D-arabinofuranosyl)-5-iodouracil] | 2 |  |  |  | 
2 | Nc1ccn([C@@H]2O[C@H](CO)[C@@H](O)C2(F)F)c(=O)n1 [dFdC, 2′,2′-difluorodeoxycytidine] | > 1000 | cannot phosphorylate | does not phosphorylate |  | 
3 | Nc1ccn([C@@H]2O[C@H](CO)[C@@H](O)[C@@H]2O)c(=O)n1 [AraC, 1-β-D-arabinofuranosylcytosine] | > 1000 | cannot phosphorylate |  |  | 
4 | Nc1ncnc2c1ncn2[C@H]1C[C@H](O)[C@@H](CO)O1 [deoxyadenosine] |  |  |  | efficiently phosphorylated | 
5 | Nc1ccn([C@H]2CC[C@@H](CO)O2)c(=O)n1 [ddC, 2′,3′-dideoxycytidine] | > 1000 | cannot phosphorylate | does not phosphorylate |  | 
6 | O=c1[nH]c(=O)n([C@H]2C[C@H](O)[C@@H](CO)O2)cc1F [FdU, 5-fluorodeoxyuridine] | 58 |  |  |  | 
7 | Nc1nc(Cl)nc2c1ncn2[C@H]1C[C@H](O)[C@@H](CO)O1 [CdA, 2-chloro-2′-deoxyadenosine] | > 1000 | cannot phosphorylate |  |  | 
8 | Nc1nc2c(ncn2[C@H]2C[C@H](O)[C@@H](CO)O2)c(=O)[nH]1 [deoxyguanosine] |  |  |  | efficiently phosphorylated | 
9 | O=c1[nH]c(=O)n([C@@H]2O[C@H](CO)[C@@H](O)[C@@H]2O)cc1/C=C/Br [BVaraU, (E)-5-(2-bromovinyl)-1-β-D-arabinofuranosyl-uracil] | 4 |  | does not phosphorylate |  | 
10 | Nc1ccn(C2CSC(CO)O2)c(=O)n1 (stereo not shown) [3TC] |  | cannot phosphorylate | does not phosphorylate |  | > 1000
11 | Nc1ccn([C@H]2C[C@H](O)[C@@H](CO)O2)c(=O)n1 [deoxycytidine] |  |  |  | efficiently phosphorylated | 
12 | O=c1[nH]c(=O)n([C@H]2C[C@H](O)[C@@H](CO)O2)cc1/C=C/Br [BVDU, (E)-5-(2-bromovinyl)-2′-deoxyuridine] | 3 |  | does not phosphorylate |  | 

From US6582947B1, “Medical use of gene and vector encoding a multisubstrate deoxyribonucleoside kinase” (BIO VICI, priority 1998, dated 2003)
